Test results as given in US6949575B2, “Method of inhibiting amyloid protein aggregation and imaging amyloid deposits using aminoindane derivatives” (Pfizer Inc., priority 2000, dated 2005).
Values joined by “and” are separate entries in the source; they are usually repeats but may differ in a detail not shown here. Equal entries are not always repeated.

Experiments:
Aβ (1-40) peptide = molecular target: T1, Aβ (1-40) peptide (Homo sapiens, UniProt P05067); test: BAPA (Beta-Amyloid Peptide Aggregation, pH 6.0), filtration endpoint; type: biochemical; settings: Aβ(1-40) 33 μM, pH 6.0, 2 to 4 hours, room temperature
T1 construct: Aβ (1-40) peptide in 20% HFIP
Experimental: • 1) Prepare the reaction mix above by mixing the components and storing on ice. • 2) Pipet 14.5 μL of reaction mixture into each of 50 wells of a polystyrene U-bottom 96-well microtiter plate (Coming 25881-96) on ice. • 3) Add 1.7 μL of diluted compound to be tested to each well in a column of eight, including solvent control. Serial 3-fold dilutions from 1 mM (100 μM final) in assay buffer-urea=7 dilutions+zero. Each 96-well plate can therefore accommodate 11 samples+1 Congo Red control (0.039-5 μM final in 2-fold steps). • 4) Seal the plate with aluminum film and incubate for 10 minutes on ice. • 5) Raise the temperature to 37° C. and incubate for 3 to 5 hours (depends on the lot of the peptide). • 6) Remove the aluminum film and add 250 μL/well of 5 μM thioflavin T (ThT) [T-3516, Sigma-Aldrich] in 50 mM glycine-NaOH, pH 8.5. Read fluorescence on a plate reader (ex=440 nm/20 nm; em=485 nm/20 nm) within 5 minutes. BAPA (Beta-Amyloid Peptide Aggregation) This assay is used to provide a measure of inhibition by a compound against the aggregation behavior of the β-amyloid peptide. The purpose of this assay is to provide a higher volume method of assaying the amount of β-amyloid aggregation using an endpoint assay based on filtration. In this assay, hexafluoroisopropanol (HFIP) is used to break down the initial amyloid peptide to a monomer state and use a concentration of 33 μM which is high enough so that aggregation will occur at pH 6.0 in several hours. Methods: Beta-Amyloid Peptide Aggregation, pH 6.0 (BAPA) In a 96-well plate (Costar 3794), we add 25 μL 50 mM phosphate buffer, pH 6.0, 10 μL 0.5 mg/mL Aβ (1-40) peptide in 20% HFIP+0.1 μL/assay radioiodinated ^125I Aβ (1-40) [^125I Aβ(1-40)], and 1 μL of the compound to be tested starting at 50 mM with a concentration of DMSO<1%. Then, we incubate for 2 to 4 hours at room temperature. We stop the reaction with 200 μL of 50 mM phosphate buffer, pH 6.0, and filter it through a 0.2 μm 96-well filter plate (Millipore MAGU […]). We wash the filter plate with 100 μL of the same phosphate buffer. Aggregation was detected on a Microbeta counter after impregnating the filters with Meltilex (1450-441) and is corrected for background.

Soluble Aβ(1-40) = molecular target: T2, Soluble Aβ(1-40) (Homo sapiens, UniProt P05067); test: BASST (Beta-Amyloid Self-Seeding, Thioflavin T): inhibitors of self-seeded amyloid fibril growth; type: biochemical; settings: 30 μM soluble Aβ(1-40), 37° C., 3 to 5 hours, thioflavin T fluorescence
T2 construct: Soluble Aβ(1-40)—2.2 mg/mL in deionized H2O
Experimental: • 1) Prepare reaction mixture above by mixing components and storing on ice. • 2) Pipet 14.5 μL of reaction mixture into each of 50 wells on a polypropylene U-bottom 96-well microtiter plate on ice (Costar 3794). • 3) Add 1.7 μL of diluted compound to be tested to each well in a column of eight, including solvent control. Serial 3-fold dilutions from 1 mM (100 μM final) in assay buffer-urea=7 dilutions+zero. Each 96-well plate can therefore accommodate 11 samples+1 Congo Red control (0.039-5 μM final in 2-fold steps). • 4) Seal the plate with aluminum film (Beckman 538619) and incubate for 10 minutes on ice. • 5) Raise the temperature to 37° C. and incubate for 3 to 5 hours (depending on the lot of the peptide). • 6) Remove the aluminum film and add 200 μL/well of ice cold assay buffer with urea, collecting the radiolabeled fibrils by vacuum filtration through 0.2-μm pore size GVWP filters in 96-well plates (Millipore MAGV […], Bedford, Mass.). Determine the radioactivity of the filters using standard methods well-known to those skilled in the art. BASST (Beta-Amyloid Self-Seeding, Thioflavin T) An assay for inhibitors of self-seeded amyloid fibril growth Methods: Materials: Stock Solutions: Assay Buffer-50 mM sodium phosphate, pH 7.5, 100 mM NaCl, 0.02% NaN3, 1 M urea (filter and store at 4° C.) Soluble Aβ(1-40)-2.2 mg/mL in deionized H2O (store in aliquots at -20° C., keep on ice when thawed) will self-seed after 1 week storage. Typically, the solution should be stored until no lag phase is seen in the assay. Final assay conditions: 30 μM soluble Aβ(1-40) in deionized water in assay buffer. Compound to be tested is dissolved in DMSO, typically 5 to 50 mM stock, such that the final concentration of DMSO is <1% v/v in the assay. Assay: Reaction mixture for 50 assays (on ice) comprised of 1 μL of soluble Aβ(1-40)+13.5 μL assay buffer per assay. The following are the amounts of the components of the reaction mixture that result in each of the 50 assay wells. 50 μL soluble Aβ(1-40) 675 μL assay buffer Assay Method • 1) Prepare the reaction mix above by mixing the components and storing on ice. • 2) Pipet 14.5 μL of reaction mixture into each of 50 wells of a polystyrene U-bottom 96-well microtiter plate (Coming 25881-96) on ice. • 3) Add 1.7 μL of diluted compound to be tested to each well in a column of eight, including solvent control. Serial 3-fold dilutions from 1 mM (100 μM final) in assay buffer-urea=7 dilutions+zero. Each 96-well plate can therefore accommodate 11 samples+1 Congo Red control (0.039-5 μM final in 2-fold steps). • 4) Seal the plate with aluminum film and incubate for 10 minutes on ice. • 5) Raise the temperature to 37° C. and incubate for 3 to 5 hours (depends on the lot of the peptide). • 6) Remove the aluminum film and add 250 μL/well of 5 μM thioflavin T (ThT) [T-3516, Sigma-Aldrich] in 50 mM glycine-NaOH, pH 8.5. Read fluorescence on a plate reader (ex=440 nm/20 nm; em=485 nm/20 nm) within 5 minutes. BAPA (Beta-Amyloid Peptide Aggregation)

T1 sequence (P05067 672-711 limits assumed): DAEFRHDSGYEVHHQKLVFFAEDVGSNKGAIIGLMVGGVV
T2 sequence (P05067 672-711 limits assumed): as above

SMILES | IC50 (Aβ (1-40) peptide) [µM] | IC50 (Soluble Aβ(1-40))
CCCCCN(CCCCC)C1Cc2ccc(Nc3ccc([N+](=O)[O-])cc3C(=O)O)cc2C1 (stereo not drawn) [Example 1, 2-[(2-N,N-di-n-pentylamino)-indan-5-yl]amino-5-nitro-benzoic Acid] | 33 | 40 µM
CCCCCNC1Cc2ccc(Nc3ccc([N+](=O)[O-])cc3C(=O)O)cc2C1 (stereo not drawn) [Example 12, 2-[2-(n-Pentylamino)-indan-5-ylamino]-5-nitro-benzoic acid] | 5 | > 100 µM
CCCCCN(CCCCC)C1Cc2ccc(Nc3ccc(C(=O)O)cc3[N+](=O)[O-])cc2C1 (stereo not drawn) [Example 7, 4-(2-Dipentylamino-indan-5-yl-amino)-3-nitro-benzoic Acid] | 118 | 8 µM
COc1ccc(Nc2ccc3c(c2)CC(NCc2ccc(Cl)c(Cl)c2)C3)c(C(=O)O)c1 (stereo not drawn) [Example 5, 2-[2-(3,4-Dichlorobenzylamino)-indan-5-ylamino]-5-methoxy-benzoic acid] | 165 | 30 µM
CCCCCN(CCCCC)C1Cc2ccc(Nc3ccc(C)cc3C(=O)O)cc2C1 (stereo not drawn) [Example 6, 2-(2-Dipentylamino-indan-5-yl-amino)-5-methyl-benzoic acid] | 118 | 21 µM and > 100 µM
O=C(O)c1cc([N+](=O)[O-])ccc1Nc1ccc2c(c1)CC(NCc1ccc(F)cc1)C2 (stereo not drawn) [Example 10, 2-[2-(4-Fluorobenzylamino)-indan-5-ylamino]-5-nitro-benzoic acid] | > 100 | 30 µM
